Laboratory results from patent publication US12583854B2, “KRAS G12C inhibitors and methods of using the same” (Amgen Inc., priority 2018, dated 2026).
Where two headings read alike, the source gives them in different places.

Legend:
[1] = target: GDP-bound KRAS protein (aa 1-169), containing both G12C and C118A amino acid substitutions (Homo sapiens, UniProt P01116, C118A/G12C); assay: Coupled Nucleotide Exchange Assay; type: biochemical; settings: 5 min compound pre-incubation; SOS-mediated nucleotide exchange, AlphaScreen
Sequence of GDP-bound KRAS protein (aa 1-169), containing both G12C and C118A amino acid substitutions (P01116 1-169 isoform P01116-2 G12C/C118A): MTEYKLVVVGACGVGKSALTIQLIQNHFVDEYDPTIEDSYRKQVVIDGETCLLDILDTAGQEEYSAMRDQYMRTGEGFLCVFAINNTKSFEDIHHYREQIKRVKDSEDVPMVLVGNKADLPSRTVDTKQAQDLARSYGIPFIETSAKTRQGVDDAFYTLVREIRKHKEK
Protocol: Following compound pre-incubation, purified SOS protein (aa 564-1049) and GTP (Roche 10106399001) were added to the assay wells and incubated for an additional 30 min. To determine the extent of inhibition of SOS-mediated nucleotide exchange, purified GST-tagged cRAF (aa 1-149), nickel chelate AlphaLISA acceptor beads (PerkinElmer AL108R), and AlphaScreen glutathione donor beads (PerkinElmer 6765302) were added to the assay wells and incubated for 10 minutes. The assay plates were then read on a PerkinElmer EnVision Multilabel Reader, using AlphaScreen® technology, and data were analyzed using a 4-parameter logistic model to calculate IC50 values.

[2] = system: Phosphorylation of ERK1/2 in MIA PaCa-2 cells; assay: Phospho-ERK1/2 MSD Assay; type: cell-based; settings: EGF stimulation 10 ng/mL, 10 min, read-out: p-ERK IC50 (2 h)
Protocol: Phospho-ERK1/2 MSD Assay: MIA PaCa-2 (ATCC® CRL-1420™) and A549 (ATCC® CCL-185™) cells were cultured in RPMI 1640 Medium (ThermoFisher Scientific 11875093) containing 10% fetal bovine serum (ThermoFisher Scientific 16000044) and 1× penicillin-streptomycin-glutamine (ThermoFisher Scientific 10378016). Sixteen hours prior to compound treatment, MIA PaCa-2 were seeded in 96-well cell culture plates at a density of 25,000 cells/well and incubated at 37° C., 5% CO2. A compound dose-response titration was diluted in growth media, added to appropriate wells of a cell culture plate, and then incubated at 37° C., 5% CO2 for 2 (see Table 10). Following compound treatment, cells were stimulated with 10 ng/mL EGF (Roche 11376454001) for 10 min, washed with ice-cold Dulbecco's phosphate-buffered saline, no Ca^2+ or Mg^2+ (ThermoFisher Scientific 14190144), and then lysed in RIPA buffer (50 mM Tris-HCl pH 7.5, 1% Igepal, 0.5% sodium deoxycholate, 150 mM NaCl, and 0.5% sodium dodecyl sulfate) containing protease inhibitors (Roche 4693132001) and phosphatase inhibitors (Roche 4906837001). Phosphorylation of ERK1/2 in compound-treated lysates was assayed using Phospho-ERK1/2 Whole Cell Lysate kits (Meso Scale Discovery K151DWD) according to the manufacturer's protocol. Assay plates were read on a Meso Scale Discovery Sector Imager 6000, and data were analyzed using a 4-parameter logistic model to calculate IC50 values.

[3] = Homo sapiens, MIA PaCa-2, 2 h compound treatment

Coupled exchange IC50 (5 min; μM) [1] | IC50 ([2]; 2 h compound treatment) | IC50 [2, 3] | SMILES
0.10 µM | 60 nM | – | C=CC(=O)N1CCN(c2c(C#N)c(=O)n(-c3c(C)ccnc3C(C)C)c3nc(-c4ccccc4F)c(Cl)cc23)CC1 [Example 6.5, 4-(4-acryloylpiperazin-1-yl)-6-chloro-7-(2-fluorophenyl)-1-(2-isopropyl-4-methylpyridin-3-yl)-2-oxo-1,2-dihydro-1,8-naphthyridine-3-carbonitrile]
0.20 µM | – | 150 nM | C=CC(=O)N1CCN(c2c(C#N)c(=O)n(-c3c(C)ccnc3C(C)C)c3nc(-c4ccccc4F)c(Cl)cc23)C[C@H]1C (single isomer, unassigned) [Example 6.7]
0.18 µM | – | 260 nM | C=CC(=O)N1[C@H](C)CN(c2c(C#N)c(=O)n(-c3c(C)ccnc3C(C)C)c3nc(-c4ccccc4F)c(Cl)cc23)C[C@@H]1C (single isomer, unassigned) [Example 7.7]
1.02 µM | – | 4470 nM | CC(C)c1ncnc(C(C)C)c1-n1c(=O)c(C#N)c(N2CCN(C(=O)/C=C/CN3CCCCC3)CC2)c2cc(Cl)c(-c3ccccc3F)nc21 [Example 3.1]
0.44 µM | – | 390 nM | CC(C)c1ncnc(C(C)C)c1-n1c(=O)c(C#N)c(N2CCN(C(=O)/C=C/CNC(C)(C)C)CC2)c2cc(Cl)c(-c3ccccc3F)nc21 [Example 5.2, (E)-4-(4-(4-(tert-butylamino)but-2-enoyl)piperazin-1-yl)-6-chloro-1-(4,6-diisopropylpyrimidin-5-yl)-7-(2-fluorophenyl)-2-oxo-1,2-dihydro-1,8-naphthyridine-3-carbonitrile]
0.15 µM | – | 220 nM | C=CC(=O)N1CCN(c2c(C#N)c(=O)n(-c3c(C(C)C)ccnc3C(C)C)c3nc(-c4ccccc4C)c(Cl)cc23)CC1 (single isomer, unassigned) [Example 7, 4-(4-Acryloylpiperazin-1-yl)-6-chloro-1-(2,4-diisopropylpyridin-3-yl)-2-oxo-7-(o-tolyl)-1,2-dihydro-1,8-naphthyridine-3-carbonitrile]
0.4 µM | – | 720 nM | CC(C)c1ncnc(C(C)C)c1-n1c(=O)c(C#N)c(N2CCN(C(=O)/C=C/CN(C)C)CC2)c2cc(Cl)c(-c3ccccc3F)nc21 [Example 3, (E)-6-Chloro-1-(4,6-diisopropylpyrimidin-5-yl)-4-(4-(4-(dimethylamino)but-2-enoyl)piperazin-1-yl)-7-(2-fluorophenyl)-2-oxo-1,2-dihydro-1,8-naphthyridine-3-carbonitrile]
0.70 µM | – | 760 nM | CC(C)c1ncnc(C(C)C)c1-n1c(=O)c(C#N)c(N2CCN(C(=O)/C=C/CNC3CC3)CC2)c2cc(Cl)c(-c3ccccc3F)nc21 [Example 5, (E)-6-Chloro-4-(4-(4-(cyclopropylamino)but-2-enoyl)piperazin-1-yl)-1-(4,6-diisopropylpyrimidin-5-yl)-7-(2-fluorophenyl)-2-oxo-1,2-dihydro-1,8-naphthyridine-3-carbonitrile]
0.18 µM | – | 260 nM | C=CC(=O)N1[C@H](C)CN(c2c(C#N)c(=O)n(-c3c(C)ccnc3C(C)C)c3nc(-c4ccccc4F)c(Cl)cc23)C[C@@H]1C [Example 7.3, 4-((3R,5S)-4-acryloyl-3,5-dimethylpiperazin-1-yl)-6-chloro-7-(2-fluorophenyl)-1-(2-isopropyl-4-methylpyridin-3-yl)-2-oxo-1,2-dihydro-1,8-naphthyridine-3-carbonitrile]
0.24 µM | 240 nM | – | C=CC(=O)N1CCN(c2c(C#N)c(=O)n(-c3c(C(C)C)ccnc3N(C)C)c3nc(-c4ccccc4F)c(Cl)cc23)CC1 (single isomer, unassigned) [Example 8.4, 4-(4-acryloylpiperazin-1-yl)-6-chloro-1-(2-(dimethylamino)-4-isopropylpyridin-3-yl)-7-(2-fluorophenyl)-2-oxo-1,2-dihydro-1,8-naphthyridine-3-carbonitrile]
